Data on one substance can be found in US12729377B2, “RNAi agents and compositions for inhibiting expression of angiopoietin-like 3 (ANGPTL3), and methods of use” (Arrowhead Pharmaceuticals, Inc., priority 2017, dated 2026).

The test system of series [1] is ANGPTL3 gene. Nature of the series: Example 13: serum total cholesterol in HFCS diet-fed Rhesus monkeys. Conditions: for Avg Chol (Cholesterol) Normalized to Pre-Treatment (Fasted): 4.0 mg/kg sc on day 1 and day 29. It is filed as in vivo. On the procedure:
ANGPTL3 RNAi agent AD05488 was further evaluated in high-fructose corn syrup (HFCS) diet-fed Rhesus monkeys. Rhesus monkeys were placed on an HFCS diet 37 days prior to dosing. These animals were known to develop increased plasma triglycerides greater than 180 mg/dL on the HFCS diet. On day 1 and again on day 29, four (4) Rhesus monkeys were administered a subcutaneous injection containing 4.0 mg/kg of ANGPTL3 RNAi agent AD05488 formulated in saline (n=4). Two additional Rhesus monkeys were administered normal saline control.
Fasted blood samples were drawn for analysis, and serum samples were analyzed on days-8 (predose), 8, 15, 21, 29, and 36. ANGPTL3 expression levels, triglycerides, total cholesterol, high-density lipoprotein (HDL), and low-density lipoprotein (LDL) in serum were measured on a Cobas® Integra 400 (Roche Diagnostics), according to the manufacturer's recommendations.
The ANGPTL3 protein levels, triglyceride levels, total cholesterol levels, HDL levels, and LDL levels for each animal were normalized. For normalization, the level of ANGPTL3 protein, triglyceride, HDL, and total cholesterol, respectively, for each animal at a time point, was divided by the pre-treatment level of expression in that animal (in this case at day −8) to determine the ratio of expression “normalized to pre-treatment.”

Series [2] relates to ANGPTL3 gene. Nature of the series: Example 6: serum triglycerides in mice. It is filed as in vivo, C57bl/6 mice. On the procedure: (§1) To assess the in vivo activity of additional ANGPTL3 RNAi agents that are designed to target position 304 on the ANGPTL3 gene, six- to eight-week-old female C57bl/6 mice were used. Pre-dose serum samples were taken at day −1 after a four hour fast. At day 1, each mouse was given a single subcutaneous administration of 200 μl containing 0.5 mg/kg (mpk) of an ANGPTL3 RNAi agent in D5W (dextrose in 5% water), or control (D5W) with no RNAi agent, according to the dosing groups recited in Table 25.
(§2) Each of the RNAi agents included a modified sequence and an N-acetyl-galactosamine-containing targeting ligand conjugated to the 5′ terminal end of the sense strand. (See Tables 3, 4, and 5 for modified sequences and targeting ligand structures). The injections were performed between the skin and muscle (i.e. subcutaneous injections) into the loose skin over the neck and shoulder area. Three (3) mice in each group were tested (n=3). Serum was collected on days 8, 15, 22, 30, and on day 43 for certain groups (i.e., Groups 1, 2, 5, and 10 only). Mice were fasted for four hours prior to each collection. ANGPTL3 protein levels in serum were measured by ELISA assay (R&D Systems), according to the manufacturer's recommendations. Triglycerides, total cholesterol, high-density lipoprotein (HDL), and low-density lipoprotein (LDL) in serum were measured on a Cobas® Integra 400 (Roche Diagnostics), according to the manufacturer's recommendations.
(§3) The ANGPTL3 protein levels, triglyceride levels, total cholesterol levels, HDL levels, and LDL levels for each animal were normalized. For normalization, the level of ANGPTL3 protein, triglyceride, HDL, and total cholesterol, respectively, for each animal at a time point, was divided by the pre-treatment level of expression in that animal (in this case at day −1) to determine the ratio of expression “normalized to pre-treatment.” Expression at a specific time point was then normalized to the D5W control group by dividing the “normalized to pre-treatment” ratio for an individual animal by the mean “normalized to pretreatment” ratio of all mice in the D5W control group.

Series [3] deals with ANGPTL3 protein. Description: Example 6: serum ANGPTL3 protein by ELISA in mice. It is filed as in vivo, C57bl/6 mice. Conditions: for Avg ANGPTL3, normalized to pre-treatment and control: 0.5 mg/kg single SC injection on day 1, serum, n=3. As to the method:
as §1, §2, §3

In the oligonucleotide strings, read from the 5' end, every base follows the letter of its sugar. An asterisk marks phosphorothioate; unmarked linkages are phosphodiester. Other units and linkages are bracketed, terminal groups are in braces. A string of capitals states the bases alone. {NAG37} = tridentate N-acetyl-galactosamine targeting ligand, structure (NAG37)s; [invAb] = inverted abasic unit; m = 2'-O-methyl; f = 2'-fluoro

With “AD05488: RNAi agent duplex: antisense AM07235-AS, sense AM07234-SS (antisense mU*fA*mC*fUmGfAmUfCmAfAmAfUmAfUmGfUmUfGmAfG*mC; sense {NAG37}*[invAb]*mGmCmUmCmAmAmCmAfUfAfUmUmUmGmAmUmCmAmGmUmA*[invAb])”, the “reductions in total cholesterol levels” value in series [1] (4.0 mg/kg on days 1 and 29, HFCS diet-fed Rhesus monkeys) is listed as “reductions”. Besides, the “Avg Chol (Cholesterol) Normalized to Pre-Treatment (Fasted)” value in series [1] (Day 8) was 0.734; in series [1] (Day 15), 0.641; in series [1] (Day 21) it was 0.579; in series [1] (Day 29), 0.549; in series [1] (Day 36), 0.459. The “Avg TG, normalized to pre-treatment and control” value in series [2] (Day 8, 0.5 mg/kg single SC injection on day 1, n=3) is on record as 0.568; in series [2] (Day 15, 0.5 mg/kg single SC injection on day 1, n=3), 0.637; in series [2] (Day 22, 0.5 mg/kg single SC injection on day 1, n=3) it was 0.484; in series [2] (Day 30, 0.5 mg/kg single SC injection on day 1, n=3) it was 0.652; in series [2] (Day 43, 0.5 mg/kg single SC injection on day 1, n=3) it was 0.689. Also, the “Avg ANGPTL3, normalized to pre-treatment and control” value is reported as 0.221 in series [3] (Day 8); 0.272 in series [3] (Day 15); 0.254 in series [3] (Day 22); 0.381 in series [3] (Day 30); 0.475 in series [3] (Day 43). Further, in series [3] (through at least day 22, single 0.5 mg/kg subcutaneous, C57bl/6 mice), the “reduction in ANGPTL3 protein levels” value is “substantial reduction”.
